Data on 39 compounds can be found in the OPERA property sets (Mansouri et al. 2018).

Each structure is given as a SMILES string.

As usually defined, the logP is the decadic logarithm of the partition coefficient of the neutral form, usually between octanol and water. A low value points to a more hydrophilic compound. For the compound `CC(=O)OC(C)(C)C1CC=C(C)CC1` (centres undefined), the logP worked out at 3.96.

The compound `CC1=CC(=O)[C@H]2C[C@@H]1C2(C)C` returned a logP of 2.23.

In the case of `CC1=CC=C(C(C)C)CC1`, the logP came out at 4.25.

`C=CC(C)(CCC=C(C)C)OC(C)=O` (centres undefined): the logP was determined as 3.93.

`CC(=O)OC1CC(C)CCC1C(C)C` (racemic) displayed a logP of 4. This logP and that of the compound before are within 0.2 log units of each other.

Take `C=C(C)[C@@H]1CC=C(C)C(=O)C1`: the logP stood at 2.71.

`CC(C)C12CCC(C)(CC1)O2` came in with a logP of 2.97.

For `CC1(C)[C@@H]2CC[C@@]1(C)[C@H](O)C2`, the logP was 3.24.

`CC(C)=C1CC[C@@H](C)CC1=O`: the logP is 3.08.

In turn, `CC(C)[C@@H]1CC[C@@H](C)CC1=O` came in with a logP of 3.05.

The compound `CC1(C)C2CCC(CN)C1C2` (centres undefined) returned a logP of 2.05.

Consider `C=CC1(C)CCC(C(C)(C)O)O1` (centres undefined), for which the lipophilicity (logP) turned out to be 2.43.

In turn, `CC=Cc1ccc(O)c(OC)c1` registered a logP of 3.04.

Regarding `CC(C)=CCC/C(C)=C/CO`, the logP turned out to be 3.56.

`CC12CCC(C1)C(C)(C)C2=O` (centres undefined): the logP came to 3.52.

Regarding `C=C(C)[C@@H]1CC=C(C=O)CC1`, the logP is 3.13.

Take `C=C(C)C1CC=C(CO)CC1` (centres undefined): the log partition coefficient (logP) worked out at 3.17.

The compound `CC1=CC(O)C2CC1C2(C)C` (centres undefined) came in with a logP of 3.16. This logP and that of the compound before are within 0.2 log units of each other.

In turn, `CC1=CCC(O)(C(C)C)CC1` (centres undefined) showed a logP of 3.26.

In turn, `CC1(C)C2CC=C(CO)C1C2` (centres undefined) displayed a logP of 3.22.

For `C=C1CCC2CC1C2(C)C` (centres undefined), the log partition coefficient (logP) was found to be 4.16.

In the case of `CC1CCC(C(C)C)C(O)C1` (centres undefined), the logP was determined as 3.4.

With `C=C(C)C1CCC(C)C(O)C1` (centres undefined), the logP turned out to be 3.21.

The compound `C=C1[C@H]2CC[C@H](C2)C1(C)C` returned a logP of 4.22.

For `CC(=O)OC/C=C(\C)CCC=C(C)C`, the logP worked out at 4.04.

Take `C=C(C)C1CC=C(C)C(O)C1` (centres undefined): the logP came out at 3.12.

Turning to `CC1=CC(=O)C(C(C)C)CC1` (centres undefined), the logP came out at 2.85.

Compound `Cc1ccc(C(C)C)cc1O` gave a logP of 3.49.

For `CC(C)=CCC[C@@H](C)CC=O`, the logP worked out at 3.83.

The compound `CC1=CCC(C(C)(C)O)C[C@@H]1O` (some centres undefined) yielded a logP of 1.81.

Take `CC1=CCC2C(C1)C2(C)C` (centres undefined): the logP was 4.38.

In turn, `CC(=O)/C=C/C1C(C)=CCCC1(C)C` (centres undefined) registered a logP of 3.85.

In the case of `CC1=CCC2C(C1=O)C2(C)C` (centres undefined), the logP was 2.42.

For the compound `C=C(C)C1CCC(C)C(=O)C1` (centres undefined), the logP was 2.85.

`CC1(C)[C@H]2CC[C@](C)(C2)[C@H]1O`: the logP was determined as 3.17.

Compound `CC12CCC(CC1)C(C)(C)O2` showed a logP of 2.74.

Take `C=C(C)C1CCC2(C)OC2C1` (centres undefined): the logP was found to be 3.2.

As to `CC1=CC2C(CC1)C2(C)C` (centres undefined), the logP was found to be 4.44.

`CC1(C)C2CC=C(C=O)C1C2` (centres undefined) registered a logP of 2.98.
